Assay results reported in patent EP0995441A2, “Combination of compounds for treating erectile dysfunctions” (priority 1998, dated 2000).
“And” between values parts separate entries of the source, which are not always exact repeats. Equal values may be shown once.

How the values were obtained:
[1] = test system: Sphincter internus und Sphincter externus; assay: Endoscopic observation and fibre-optic pressure measurement in the prostatic urethra after injection into the corpora cavernosa; type: in vivo, Patienten mit Priapismus; conditions: Vergleichsgruppe with clinically sufficient erection after 100 mg Sildenafil
Source text: Diese pharmakologischen Veränderungen sind ein indirekter Hinweis auf die alterierte Gefäßabflußsituation im Funktionsbereich der angrenzenden Organe an die Corpora cavernosa.

[2] = test system: Patienten mit Sildenafilresistenz; assay: Clinical study: erection response after oral drug combination in patients not responding to sildenafil alone; type: in vivo
Protocol: Überraschenderweise erwies sich in klinischen Studien, daß Patienten mit erektiler Impotenz (ED) nach Therapieversagen unter der Behandlung mit Sildenafil allein (ED-SN negativ nach Sildenafil-Therapie in einer Menge von 100 mg Sildenafil) mit der erfindungsgemäßen Medikamentenkombination erfolgreich therapierbar waren.
Tabelle 1 zeigt die Wirkung einer Medikamentenkombination, bestehend aus Sildenafil und Midodrin der chemischen Strukturformel: [drawing 3] wobei die Sildenafil-Mengen von 10 bis 100 mg und die Midodrin-Mengen von 5 bis 25 mg variiert wurden.
Bei 10 Patienten mit ED-SN im Alter zwischen 45 bis 65 Jahren ohne Nitropräparate und koronare Herzkrankheiten lag beispielsweise die Ansprechrate der Medikamentenkombination, bestehend aus 50 mg Sildenafil und 25 mg Midodrin bei 7 von 10 Patienten, wenn die Medikamentenkombination in Form von Zwei-Kompartment-Dragees gegeben wurde.
Bei Gabe der Medikamentenkombination in einer üblichen Retard-Form gelang es, die Ansprechrate auf 8 von 10 Patienten zu erhöhen. Tabelle 1

[3] = Sildenafil Monodosis 100 mg, control of the Retardform group

CCCc1nn(C)c2c(=O)[nH]c(-c3cc(S(=O)(=O)N4CCN(C)CC4)ccc3OCC)nc12 [Sildenafil]
Druckwerte im Bereich des Sphincter internus sowie des Sphincter externus [1]: keine vergleichbaren hohen Druckwerte | Kontrolle, 1. REAKTION (INITIALPHASE): patients reacting out of 10 ([2]; Sildenafil Monodosis 10 mg): 0/10 | Kontrolle, 50% REAKTION: patients reacting out of 10 ([2]; Sildenafil Monodosis 10 mg): 0/10 | Kontrolle, MAXIMALE EREKTION: patients reacting out of 10 ([2]; Sildenafil Monodosis 10 mg): 0/10 | Kontrolle, 1. REAKTION (INITIALPHASE): patients reacting out of 10 ([2]; Sildenafil Monodosis 50 mg): 0/10 and 1/10 | Kontrolle, 50% REAKTION: patients reacting out of 10 ([2]; Sildenafil Monodosis 50 mg): 0/10 | Kontrolle, MAXIMALE EREKTION: patients reacting out of 10 ([2]; Sildenafil Monodosis 50 mg): 0/10 | Kontrolle, 1. REAKTION (INITIALPHASE): patients reacting out of 10 ([2]; Sildenafil Monodosis 100 mg): 1/10 and 0/10 | Kontrolle, 50% REAKTION: patients reacting out of 10 ([2]; Sildenafil Monodosis 100 mg): 1/10 and 0/10 | Kontrolle, MAXIMALE EREKTION: patients reacting out of 10 ([2]; Sildenafil Monodosis 100 mg): 0/10 | Kontrolle, 50% REAKTION: time [2, 3]: 105 min | Kontrolle, MAXIMALE EREKTION: time [2, 3]: 120 min
